How the values were obtained:
[1] = system: ZIKV PRVABC59; experiment: PFU viral plaque reduction assay in A549 cells; assay type: cell-based; settings: Zika virus, A549, read-out: EC50 (anti-ZIKV)
[2] = target: NS2B−NS3 interactions (NLuc-NS2B49−66 / GST-CLuc-NS3) (Dengue virus type 2, UniProt P29990); experiment: Split luciferase complementation; assay type: binding
[3] = target: T1, NS2B−NS3 protease (His-tagged NS2B / DENV2 NS3-MBP fusion protein) (Dengue virus type 2, UniProt P29990); experiment: NS2B−NS3 protease inhibition assay with FRET substrate; assay type: biochemical
T1 sequence (P29990 1476-1653 limits assumed): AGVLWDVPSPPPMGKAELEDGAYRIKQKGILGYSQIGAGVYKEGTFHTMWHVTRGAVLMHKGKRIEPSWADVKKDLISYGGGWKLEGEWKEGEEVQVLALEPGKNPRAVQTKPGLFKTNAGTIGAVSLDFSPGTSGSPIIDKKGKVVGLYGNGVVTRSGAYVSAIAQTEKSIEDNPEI

[4] = cited from earlier work
[5] = system: 3D mini-forebrain organoid; experiment: Toxicity to 3D mini-forebrain organoid; assay type: cell-based, human; settings: Fig. S2; organoids fell apart and lost clear boundary
[6] = IC50-SLC (NS2B–NS3 interaction), split luciferase complementation, n = 3

Chain of NS2B−NS3 interactions (NLuc-NS2B49−66 / GST-CLuc-NS3) (P29990 1476-1660): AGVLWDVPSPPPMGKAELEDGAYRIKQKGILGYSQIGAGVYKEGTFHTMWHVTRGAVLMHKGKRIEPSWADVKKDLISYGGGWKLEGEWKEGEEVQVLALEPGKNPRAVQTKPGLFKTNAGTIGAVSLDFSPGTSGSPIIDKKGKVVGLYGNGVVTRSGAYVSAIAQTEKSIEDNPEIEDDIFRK

| SMILES | EC50 [1] | IC50 [2, 6] | IC50 [3] | IC50 ([2]; IC50-SLC) | cellular cytotoxicity [4] | toxicity to 3D organoids (morphology) [5] |
| --- | --- | --- | --- | --- | --- | --- |
| O=C1OC2(c3ccccc31)c1cc(Br)c(O)c(Br)c1Oc1c2cc(Br)c(O)c1Br [JMX0911, 2′,4′,5′,7′-tetrabromo-3′,6′-dihydroxy-3H-spiro[isobenzofuran-1,9′-xanthen]-3-one] | > 15 µM | 3.4 µM |  |  |  |  |
| O=C1OC2(c3ccc(O)cc3Oc3cc(O)ccc32)c2ccc(NC(=S)NCCS)cc21 [JMX0912, 1-(3′,6′-Dihydroxy-3-oxo-3H-spiro[isobenzofuran-1,9′-xanthen]-5-yl)-3-(2-mercaptoethyl)thiourea] | > 15 µM | > 100 µM | 88 µM | > 50 µM |  |  |
| O=C1OC2(c3cc(Cl)c(O)cc3Oc3cc(O)c(Cl)cc32)c2ccccc21 [JMX0897, 2′,7′-Dichloro-3′,6′-dihydroxy-3H-spiro[isobenzofuran-1,9′-xanthen]-3-one] | > 15 µM | 48 µM | 23 µM | ~50 µM |  |  |
| O=C1OC2(c3ccccc31)c1ccc(O)c(Br)c1Oc1c2ccc(O)c1Br [JMX0893, 4′,5′-dibromo-3′,6′-dihydroxy-3H-spiro[isobenzofuran-1,9′-xanthen]-3-one] | > 15 µM | 16 µM | > 60 µM |  |  |  |
| O=C1OC2(c3ccc(O)cc3Oc3cc(O)ccc32)c2ccccc21 [JMX0915, 3′,6′-Dihydroxy-3H-spiro[isobenzofuran-1,9′-xanthen]-3-one] | > 15 µM | > 100 µM | > 100 µM | > 50 µM |  |  |
| O=C1OC2(c3ccccc31)c1ccc(O)c(I)c1Oc1c2ccc(O)c1I [JMX0903, Sodium 4′,5′-diiodo-3-oxo-3H-spiro[isobenzofuran-1,9′-xanthene]-3′,6′-bis(olate)] | > 15 µM | 15 µM | 60 µM |  |  |  |
| O=C1OC2(c3cc(I)c(O)c(I)c3Oc3c2cc(I)c(O)c3I)c2c(Cl)c(Cl)c(Cl)c(Cl)c21 [JMX0902, Sodium 4,5,6,7-tetrachloro-2′,4′,5′,7′-tetraiodo-3-oxo-3H-spiro[isobenzofuran-1,9′-xanthene]-3′,6′-bis(olate)] | 0.3 µM | 0.43 µM | 2.6 µM |  |  |  |
| Oc1cccc(-c2c3nc(c(-c4cccc(O)c4)c4ccc([nH]4)c(-c4cccc(O)c4)c4nc(c(-c5cccc(O)c5)c5ccc2[nH]5)CC4)C=C3)c1 [temoporfin] |  |  |  |  | moderate cellular cytotoxicity | significant toxicity |
| O=C(O)c1ccc2c(c1)C(=O)OC21c2ccc(O)cc2Oc2cc(O)ccc21 [JMX0920, 3′,6′-Dihydroxy-3-oxo-3H-spiro[isobenzofuran-1,9′-xanthene]-5-carboxylic acid] | > 15 µM | 53 µM | > 100 µM | > 50 µM |  |  |
| O=C1OC2(c3ccccc31)c1ccc(O)c(Cl)c1Oc1c2ccc(O)c1Cl [JMX0892, 4′,5′-Dichloro-3′,6′-dihydroxy-3H-spiro[isobenzofuran-1,9′-xanthen]-3-one] | > 15 µM | 50 µM | > 60 µM | ~50 µM |  |  |

— paper PMC9279632 (Acta Pharmaceutica Sinica. B, 2021)
